Columns and labels:
[1] = target: T1, CDK7 (Homo sapiens, UniProt P50613); assay: KINOMEscan panel screen; type: binding; settings: read-out: Percent Control(%)
T1 construct: purchased DiscoveRx KINOMEscan (Ambit Biosciences)

[2] = target: T2, MET (Homo sapiens, UniProt P08581); assay: KINOMEscan kinase binding assay (Kd)
T2 construct: purchased DiscoveRx KINOMEscan (Ambit Biosciences)

[3] = target: T3, MAP4K2 (Homo sapiens, UniProt Q12851); assay: KINOMEscan panel screen; type: binding; settings: read-out: Percent Control(%)
T3 construct: purchased DiscoveRx KINOMEscan (Ambit Biosciences)

[4] = target: T4, FLT3 (Homo sapiens, UniProt P36888); assay: KINOMEscan panel screen; type: binding; settings: read-out: Percent Control(%)
T4 construct: purchased DiscoveRx KINOMEscan (Ambit Biosciences)

[5] = target: T5, PKAC-alpha (Homo sapiens, UniProt P17612); assay: KINOMEscan panel screen; type: binding; settings: read-out: Percent Control(%)
T5 construct: purchased DiscoveRx KINOMEscan (Ambit Biosciences)

[6] = target: T6, ULK1 (Homo sapiens, UniProt O75385); assay: KINOMEscan panel screen; type: binding; settings: read-out: Percent Control(%)
T6 construct: purchased DiscoveRx KINOMEscan (Ambit Biosciences)

[7] = target: T7, DLK (Homo sapiens, UniProt Q12852); assay: KINOMEscan panel screen; type: binding; settings: read-out: Percent Control(%)
T7 sequence (Q12852 1-859): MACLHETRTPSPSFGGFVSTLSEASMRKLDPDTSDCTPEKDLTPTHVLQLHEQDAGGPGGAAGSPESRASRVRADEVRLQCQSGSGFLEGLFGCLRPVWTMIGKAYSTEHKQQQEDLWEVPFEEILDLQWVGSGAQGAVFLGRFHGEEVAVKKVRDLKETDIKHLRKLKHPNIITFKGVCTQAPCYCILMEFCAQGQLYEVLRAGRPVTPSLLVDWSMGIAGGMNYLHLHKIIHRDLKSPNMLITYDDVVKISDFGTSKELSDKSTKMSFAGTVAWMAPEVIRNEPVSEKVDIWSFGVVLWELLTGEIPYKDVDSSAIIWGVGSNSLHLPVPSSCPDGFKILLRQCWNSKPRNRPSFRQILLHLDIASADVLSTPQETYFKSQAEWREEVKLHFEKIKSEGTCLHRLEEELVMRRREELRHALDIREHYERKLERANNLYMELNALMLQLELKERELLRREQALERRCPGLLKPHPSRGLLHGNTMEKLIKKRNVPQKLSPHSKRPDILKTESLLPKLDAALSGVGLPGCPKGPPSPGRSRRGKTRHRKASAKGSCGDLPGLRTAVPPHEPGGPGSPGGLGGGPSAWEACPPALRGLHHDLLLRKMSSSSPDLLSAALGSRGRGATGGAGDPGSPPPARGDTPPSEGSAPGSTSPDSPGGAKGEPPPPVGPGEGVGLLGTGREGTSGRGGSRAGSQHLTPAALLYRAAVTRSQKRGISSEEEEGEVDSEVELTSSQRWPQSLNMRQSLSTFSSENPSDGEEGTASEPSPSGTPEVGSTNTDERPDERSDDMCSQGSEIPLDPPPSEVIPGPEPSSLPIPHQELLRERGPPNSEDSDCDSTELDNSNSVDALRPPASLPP

[8] = target: T8, PCTK2 (Homo sapiens, UniProt Q00537); assay: KINOMEscan panel screen; type: binding; settings: read-out: Percent Control(%)
T8 construct: purchased DiscoveRx KINOMEscan (Ambit Biosciences)

[9] = target: T9, PIK3CG (Homo sapiens, UniProt P48736); assay: KINOMEscan panel screen; type: binding; settings: read-out: Percent Control(%)
T9 construct: purchased DiscoveRx KINOMEscan (Ambit Biosciences)

[10] = target: T10, PRKCI (Homo sapiens, UniProt P41743); assay: KINOMEscan panel screen; type: binding; settings: read-out: Percent Control(%)
T10 construct: purchased DiscoveRx KINOMEscan (Ambit Biosciences)

[11] = target: T11, PRKCQ (Homo sapiens, UniProt Q04759); assay: KINOMEscan panel screen; type: binding; settings: read-out: Percent Control(%)
T11 construct: purchased DiscoveRx KINOMEscan (Ambit Biosciences)

[12] = target: T12, FLT1 (Homo sapiens, UniProt P17948); assay: KINOMEscan panel screen; type: binding; settings: read-out: Percent Control(%)
T12 construct: purchased DiscoveRx KINOMEscan (Ambit Biosciences)

[13] = system: B16; assay: MTT cell viability assay; settings: Mus musculus, B16, 72 h
[14] = system: KG-1; assay: MTT cell viability assay; settings: Homo sapiens, KG-1, 72 h
[15] = target: T13, MEK3 (Homo sapiens, UniProt P46734); assay: KINOMEscan panel screen; type: binding; settings: read-out: Percent Control(%)
T13 construct: purchased DiscoveRx KINOMEscan (Ambit Biosciences)

[16] = target: T14, MAK (Homo sapiens, UniProt P20794); assay: KINOMEscan panel screen; type: binding; settings: read-out: Percent Control(%)
T14 construct: purchased DiscoveRx KINOMEscan (Ambit Biosciences)

[17] = target: T15, ABL1-nonphosphorylated (Homo sapiens, UniProt P00519); assay: KINOMEscan panel screen; type: binding; settings: read-out: Percent Control(%)
T15 construct: purchased DiscoveRx KINOMEscan (Ambit Biosciences)

[18] = target: T16, KIT(D816V) (Homo sapiens, UniProt P10721, D816V); assay: KINOMEscan panel screen; type: binding; settings: read-out: Percent Control(%)
T16 construct: purchased DiscoveRx KINOMEscan (Ambit Biosciences)

[19] = target: T17, NIM1 (Homo sapiens, UniProt Q8IY84); assay: KINOMEscan panel screen; type: binding; settings: read-out: Percent Control(%)
T17 construct: purchased DiscoveRx KINOMEscan (Ambit Biosciences)

[20] = target: T18, PKNB(M.tuberculosis) (Mycobacterium tuberculosis, UniProt P9WI81); assay: KINOMEscan panel screen; type: binding; settings: read-out: Percent Control(%)
T18 construct: purchased DiscoveRx KINOMEscan (Ambit Biosciences)

[21] = target: T19, PIK3CA(E545A) (Homo sapiens, UniProt P42336, E545A); assay: KINOMEscan panel screen; type: binding; settings: read-out: Percent Control(%)
T19 construct: purchased DiscoveRx KINOMEscan (Ambit Biosciences)

[22] = target: T20, FLT4 (Homo sapiens, UniProt P35916); assay: KINOMEscan panel screen; type: binding; settings: read-out: Percent Control(%)
T20 construct: purchased DiscoveRx KINOMEscan (Ambit Biosciences)

[23] = target: T21, KIT(A829P) (Homo sapiens, UniProt P10721, A829P); assay: KINOMEscan panel screen; type: binding; settings: read-out: Percent Control(%)
T21 construct: purchased DiscoveRx KINOMEscan (Ambit Biosciences)

[24] = target: T22, ABL1(H396P)-phosphorylated (Homo sapiens, UniProt P00519, H396P); assay: KINOMEscan panel screen; type: binding; settings: read-out: Percent Control(%)
T22 construct: purchased DiscoveRx KINOMEscan (Ambit Biosciences)

[25] = system: H358; assay: MTT cell viability assay; settings: Homo sapiens, NCI-H358, 72 h
[26] = target: T23, TTK (Homo sapiens, UniProt P33981); assay: KINOMEscan panel screen; type: binding; settings: read-out: Percent Control(%)
T23 construct: purchased DiscoveRx KINOMEscan (Ambit Biosciences)

[27] = system: A2058; assay: MTT cell viability assay; settings: Homo sapiens, A2058, 72 h
[28] = target: T24, MARK2 (Homo sapiens, UniProt Q7KZI7); assay: KINOMEscan panel screen; type: binding; settings: read-out: Percent Control(%)
T24 construct: purchased DiscoveRx KINOMEscan (Ambit Biosciences)

[29] = target: T25, ICK (Homo sapiens, UniProt Q9UPZ9); assay: KINOMEscan panel screen; type: binding; settings: read-out: Percent Control(%)
T25 construct: purchased DiscoveRx KINOMEscan (Ambit Biosciences)

[30] = target: T26, S6K1 (Homo sapiens, UniProt P23443); assay: KINOMEscan panel screen; type: binding; settings: read-out: Percent Control(%)
T26 construct: purchased DiscoveRx KINOMEscan (Ambit Biosciences)

[31] = target: CDK2 (Homo sapiens, UniProt P24941); parameters: method as in earlier work; settings: Table S1; cited from earlier work

T10 sequence (P41743 whole entry): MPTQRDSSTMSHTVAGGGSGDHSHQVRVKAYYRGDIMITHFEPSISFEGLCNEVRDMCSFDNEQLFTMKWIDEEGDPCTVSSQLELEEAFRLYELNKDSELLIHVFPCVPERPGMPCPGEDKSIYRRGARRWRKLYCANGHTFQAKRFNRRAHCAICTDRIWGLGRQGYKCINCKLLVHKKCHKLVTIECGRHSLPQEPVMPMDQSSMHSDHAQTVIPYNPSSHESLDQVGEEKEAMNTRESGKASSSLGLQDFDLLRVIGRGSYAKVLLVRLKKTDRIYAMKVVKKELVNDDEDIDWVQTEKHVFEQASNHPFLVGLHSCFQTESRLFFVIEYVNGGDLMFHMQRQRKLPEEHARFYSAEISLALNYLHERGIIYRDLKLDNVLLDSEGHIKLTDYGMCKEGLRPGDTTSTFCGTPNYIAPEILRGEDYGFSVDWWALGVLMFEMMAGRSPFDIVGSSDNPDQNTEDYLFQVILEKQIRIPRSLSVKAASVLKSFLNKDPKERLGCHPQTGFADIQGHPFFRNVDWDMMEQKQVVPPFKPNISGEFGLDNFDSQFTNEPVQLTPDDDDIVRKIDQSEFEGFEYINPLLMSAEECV
T1 sequence (P50613 whole entry): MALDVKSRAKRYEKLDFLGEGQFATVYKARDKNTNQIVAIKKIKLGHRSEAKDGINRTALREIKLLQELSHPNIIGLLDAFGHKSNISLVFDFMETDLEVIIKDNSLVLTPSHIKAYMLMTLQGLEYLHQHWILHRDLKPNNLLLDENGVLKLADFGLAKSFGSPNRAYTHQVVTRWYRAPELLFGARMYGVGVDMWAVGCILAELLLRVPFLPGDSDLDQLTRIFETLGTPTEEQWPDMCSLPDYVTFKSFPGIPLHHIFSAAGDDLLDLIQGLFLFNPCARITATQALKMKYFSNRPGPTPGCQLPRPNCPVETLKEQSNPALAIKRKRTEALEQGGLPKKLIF
T26 sequence (P23443 whole entry): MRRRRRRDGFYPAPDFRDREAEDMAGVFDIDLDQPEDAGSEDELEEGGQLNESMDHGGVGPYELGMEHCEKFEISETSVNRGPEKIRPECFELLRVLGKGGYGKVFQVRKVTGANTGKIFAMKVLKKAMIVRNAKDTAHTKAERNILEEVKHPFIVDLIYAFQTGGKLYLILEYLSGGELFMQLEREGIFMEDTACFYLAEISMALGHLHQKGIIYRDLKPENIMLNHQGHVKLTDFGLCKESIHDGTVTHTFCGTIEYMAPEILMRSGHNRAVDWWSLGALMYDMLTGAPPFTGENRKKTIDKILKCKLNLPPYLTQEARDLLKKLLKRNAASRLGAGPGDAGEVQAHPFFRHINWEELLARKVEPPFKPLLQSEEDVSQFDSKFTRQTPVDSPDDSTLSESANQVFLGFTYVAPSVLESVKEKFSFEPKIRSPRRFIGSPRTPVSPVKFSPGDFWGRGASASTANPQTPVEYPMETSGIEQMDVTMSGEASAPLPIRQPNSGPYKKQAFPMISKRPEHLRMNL
T8 sequence (Q00537 whole entry): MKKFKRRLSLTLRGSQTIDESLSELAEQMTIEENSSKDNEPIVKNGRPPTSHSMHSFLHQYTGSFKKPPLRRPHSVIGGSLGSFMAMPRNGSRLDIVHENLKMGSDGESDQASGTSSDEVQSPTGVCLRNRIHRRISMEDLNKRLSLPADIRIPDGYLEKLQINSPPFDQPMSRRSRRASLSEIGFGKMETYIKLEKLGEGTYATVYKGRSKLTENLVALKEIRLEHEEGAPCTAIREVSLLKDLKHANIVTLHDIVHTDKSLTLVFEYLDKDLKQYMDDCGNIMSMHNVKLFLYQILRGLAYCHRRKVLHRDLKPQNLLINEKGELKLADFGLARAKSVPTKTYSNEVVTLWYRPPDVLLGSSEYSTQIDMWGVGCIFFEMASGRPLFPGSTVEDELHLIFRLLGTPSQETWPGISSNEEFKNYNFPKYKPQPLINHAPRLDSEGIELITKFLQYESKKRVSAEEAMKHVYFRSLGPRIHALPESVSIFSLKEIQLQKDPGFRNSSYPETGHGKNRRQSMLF
T13 sequence (P46734 whole entry): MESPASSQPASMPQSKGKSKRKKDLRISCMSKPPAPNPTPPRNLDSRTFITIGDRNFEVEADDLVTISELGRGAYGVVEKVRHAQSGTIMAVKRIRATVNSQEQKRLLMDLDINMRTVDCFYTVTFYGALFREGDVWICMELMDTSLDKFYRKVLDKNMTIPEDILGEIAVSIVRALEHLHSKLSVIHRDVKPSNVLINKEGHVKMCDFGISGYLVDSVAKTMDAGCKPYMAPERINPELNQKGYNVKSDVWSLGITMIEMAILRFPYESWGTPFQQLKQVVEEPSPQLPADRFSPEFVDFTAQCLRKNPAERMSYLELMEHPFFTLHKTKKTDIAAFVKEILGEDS
T2 sequence (P08581 25-1390): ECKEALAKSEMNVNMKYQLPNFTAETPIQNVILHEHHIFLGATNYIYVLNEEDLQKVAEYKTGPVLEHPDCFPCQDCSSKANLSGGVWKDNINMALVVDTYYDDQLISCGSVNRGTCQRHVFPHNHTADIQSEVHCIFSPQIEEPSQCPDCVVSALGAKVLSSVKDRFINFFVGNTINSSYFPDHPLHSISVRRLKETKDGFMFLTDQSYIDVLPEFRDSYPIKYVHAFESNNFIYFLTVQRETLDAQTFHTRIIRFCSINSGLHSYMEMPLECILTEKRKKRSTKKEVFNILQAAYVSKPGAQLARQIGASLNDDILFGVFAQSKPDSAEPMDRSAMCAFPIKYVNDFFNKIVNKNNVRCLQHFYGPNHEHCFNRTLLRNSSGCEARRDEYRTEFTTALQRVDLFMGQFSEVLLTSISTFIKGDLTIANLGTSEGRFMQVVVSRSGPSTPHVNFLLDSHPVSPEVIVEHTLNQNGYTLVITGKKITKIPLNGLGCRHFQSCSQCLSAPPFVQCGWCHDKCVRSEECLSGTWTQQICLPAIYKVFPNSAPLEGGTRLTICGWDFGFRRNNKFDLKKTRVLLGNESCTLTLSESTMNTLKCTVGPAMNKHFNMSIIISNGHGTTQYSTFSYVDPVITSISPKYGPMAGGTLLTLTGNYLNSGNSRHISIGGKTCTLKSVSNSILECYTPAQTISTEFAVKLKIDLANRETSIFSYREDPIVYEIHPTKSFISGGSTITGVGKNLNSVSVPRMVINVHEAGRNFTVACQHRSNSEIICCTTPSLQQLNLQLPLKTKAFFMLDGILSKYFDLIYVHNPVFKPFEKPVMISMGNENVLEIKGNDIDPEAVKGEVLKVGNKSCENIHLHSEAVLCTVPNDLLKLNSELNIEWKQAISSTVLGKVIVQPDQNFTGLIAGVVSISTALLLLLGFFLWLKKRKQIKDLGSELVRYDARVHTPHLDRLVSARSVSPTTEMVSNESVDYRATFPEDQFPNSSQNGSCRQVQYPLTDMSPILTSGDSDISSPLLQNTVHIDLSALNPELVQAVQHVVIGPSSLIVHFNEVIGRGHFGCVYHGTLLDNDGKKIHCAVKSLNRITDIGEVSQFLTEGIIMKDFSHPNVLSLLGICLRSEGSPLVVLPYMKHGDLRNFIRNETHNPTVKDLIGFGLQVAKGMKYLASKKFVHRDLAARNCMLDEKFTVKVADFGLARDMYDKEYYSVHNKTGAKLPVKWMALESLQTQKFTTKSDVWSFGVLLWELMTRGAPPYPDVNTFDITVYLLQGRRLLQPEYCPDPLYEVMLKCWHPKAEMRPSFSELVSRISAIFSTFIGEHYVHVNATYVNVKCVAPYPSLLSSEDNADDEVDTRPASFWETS
T16 sequence (P10721 26-976 D816V): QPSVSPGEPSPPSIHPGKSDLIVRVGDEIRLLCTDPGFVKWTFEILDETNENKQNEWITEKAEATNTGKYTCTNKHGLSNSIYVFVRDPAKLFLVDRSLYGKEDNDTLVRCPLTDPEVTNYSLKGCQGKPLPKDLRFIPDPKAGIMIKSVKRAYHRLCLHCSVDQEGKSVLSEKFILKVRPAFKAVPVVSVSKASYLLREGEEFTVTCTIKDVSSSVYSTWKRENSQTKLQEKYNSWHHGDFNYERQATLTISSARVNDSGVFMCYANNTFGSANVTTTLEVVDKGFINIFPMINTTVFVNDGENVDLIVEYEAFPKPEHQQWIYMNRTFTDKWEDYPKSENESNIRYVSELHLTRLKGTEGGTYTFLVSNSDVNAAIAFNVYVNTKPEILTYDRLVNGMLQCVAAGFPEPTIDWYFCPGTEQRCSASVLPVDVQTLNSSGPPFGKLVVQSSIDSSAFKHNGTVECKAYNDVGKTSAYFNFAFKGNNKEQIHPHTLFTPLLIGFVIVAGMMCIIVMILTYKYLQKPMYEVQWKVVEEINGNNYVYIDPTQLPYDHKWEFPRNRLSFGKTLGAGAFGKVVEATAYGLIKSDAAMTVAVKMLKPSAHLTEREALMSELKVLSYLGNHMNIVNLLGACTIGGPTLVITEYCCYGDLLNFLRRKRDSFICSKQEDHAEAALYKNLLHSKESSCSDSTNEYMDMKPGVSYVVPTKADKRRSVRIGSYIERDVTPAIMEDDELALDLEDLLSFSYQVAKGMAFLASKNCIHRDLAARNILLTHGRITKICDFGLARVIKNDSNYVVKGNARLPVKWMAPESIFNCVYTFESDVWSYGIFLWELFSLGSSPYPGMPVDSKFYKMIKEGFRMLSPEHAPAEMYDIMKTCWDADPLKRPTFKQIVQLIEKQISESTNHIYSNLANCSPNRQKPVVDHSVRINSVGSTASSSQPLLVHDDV

CC(C)(C)c1cc(NC(=O)Nc2ccc(Oc3ncnc4[nH]ncc34)c(F)c2)no1 [SKLB-677, 1-(4-(1H-pyrazolo[3,4-d]pyrimidin-4-yloxy)-3-fluorophenyl)-3-(5-tert-butylisoxazol-3-yl)urea]
remaining binding at 10 µM [1]: 3.1%
Kd [2]: 0.22 µM
remaining binding at 10 µM [3]: 28%
remaining binding at 10 µM [4]: 2%
remaining binding at 10 µM [5]: 31%
remaining binding at 10 µM [6]: 70%
remaining binding at 10 µM [7]: 86%
remaining binding at 10 µM [8]: 0%
remaining binding at 10 µM [9]: 100%
remaining binding at 10 µM [10]: 79%
remaining binding at 10 µM [11]: 50%
remaining binding at 10 µM [12]: 0.05%
IC50 [13]: > 10 µM
IC50 [14]: 2 µM
remaining binding at 10 µM [15]: 63%
remaining binding at 10 µM [16]: 21%
remaining binding at 10 µM [17]: 1.2%
remaining binding at 10 µM [18]: 0.2%
remaining binding at 10 µM [19]: 33%
remaining binding at 10 µM [20]: 100%
remaining binding at 10 µM [21]: 86%
remaining binding at 10 µM [22]: 0%
remaining binding at 10 µM [23]: 15%
remaining binding at 10 µM [24]: 11%
IC50 [25]: 8 µM
remaining binding at 10 µM [26]: 17%
IC50 [27]: > 10 µM
remaining binding at 10 µM [28]: 98%
remaining binding at 10 µM [29]: 42%
remaining binding at 10 µM [30]: 54%

O=C(Nc1ccc(Oc2ncnc3[nH]ncc23)cc1)Nc1ccc(Cl)c(C(F)(F)F)c1 [Compound 1, 1-(4-(1H-pyrazolo[3,4-d]pyrimidin-4-yloxy)phenyl)-3-(4-chloro-3-(trifluoromethyl)phenyl)urea]
IC50 [31]: > 10 µM
